In PubChem BioAssay AID2060497 (Molecular Pharmacology Branch, DTP, NCI, 2025):
Several values for one entry are separate records, joined by “and”; a condition that tells them apart may be missing. Equal entries are not always repeated.

Tested on: 317291-083-R-J1-PDC complex spheroids, viability
Assay: Anticancer human tumor 317291-083-R-J1-PDC patient-derived soft tissue sarcoma cell line growth inhibition [GQUAD]
Settings: for viability, T/C: stronger effect = lower value
From the text: DNA G-quadruplex Stabilizer Agents in Combinations in Complex Spheroids
A high-throughput screen of multi-cell type tumor spheroids was designed to identify active combinations of DNA G-quadruplex stabilizer agents and targeted small molecules. Complex spheroids include a stromal component modeled by human endothelial cells (HUVEC) and fibroblasts modeled by human mesenchymal stem cells (MSCs). The concentration ranges selected for each drug and investigational agent were based upon clinically achievable concentrations if the clinical Cmax of the agent was known.
Compounds. The drugs and investigational agents: pidnarulex (CX-5461; NSC782164), APTO-253 (NSC789042), BRACO-19 (NSC847499), peposertib (NSC802822), ceralasertib (NSC780249), elimusertib (NSC800525), camonsertib (NSC841442), AZD-1390 (NSC803789), olaparib (NSC753686), talazoparib (NSC767125), ART-558 (NSC835418), sotorasib (NSC818433), MRTX-1133 (NSC836407), SN-38 (NSC673596), topotecan (NSC609699), etoposide (NSC141540), doxorubicin (NSC123127), gemcitabine (NSC613327), 5-fluorouracil (NSC19893), paclitaxel (NSC125973), vemurafenib (NSC761431), panobinostat (NSC761190), R-306465 (JNJ-16241199; NSC773264), adavosertib (NSC754352), TP-3654 (NSC805149), carboplatin (NSC241240), KSQ-4279 (NSC840948), and staurosporine (NSC755774) were obtained from the National Cancer Institute (NCI) Developmental Therapeutics Program Chemical Repository (34). The FDA-approved anticancer drug set is available from the NCI Developmental Therapeutics Program. […] The stock solutions were prepared in dimethyl sulfoxide (DMSO, Sigma-Aldrich, St. Louis, MO, cat. D2650) at 800-fold the tested concentration and stored at -70 degrees C prior to their use. All drugs and investigational agents were tested over a range starting from a high concentration at or near the clinical Cmax and decreasing in half-log increments. If the clinical Cmax for an agent had not been determined, the highest concentration tested was 10 microM.
2.3 Cell Culture. All cells were maintained in an incubator at 37 degrees C and 5% CO2 with 95% humidity. The PDC lines were cultured according to standard operating procedures established by the NCI PDMR. All PDCs were thawed and cultured in Matrigel-coated flasks prepared with a working solution of 1X Ham's F-12 nutrient mix, without supplementation (Invitrogen, cat. 11765054), 100 U/mL penicillin-streptomycin (Invitrogen, cat. 15140122), and 2.5% Matrigel (Corning Inc., cat. 354248) for the first three passages. The 857933-349-R-J2-PDC line was cultured in 6C/Colon 1B media, which includes advanced DMEM/F-12 (Thermo Fisher Scientific, cat. 12634028), 10 mM HEPES (Thermo Fisher Scientific, cat. 15630080), 1X GlutaMAX supplement (Thermo Fisher Scientific, cat. 35050061), 0.1 mg/mL primocin (InvivoGen, cat. ant-pm-2), 10% defined fetal bovine serum, heat inactivated (HyClone Laboratories Inc., cat. SH30070.03HI), 50% L-WRN conditioned media (ATCC, cat. CRL-3276), 1.25 mM N-Acetyl-L-cysteine (Sigma-Aldrich, cat. A9165), 10 mM nicotinamide (Sigma-Aldrich, cat. N0636), 1X B-27 supplement (Thermo Fisher Scientific, cat. 17504044), 1X N-2 supplement (Thermo Fisher Scientific, cat. 17502048), 10 microM Y-27632 dihydrochloride (Tocris Bioscience, cat. 1254), and 50 ng/mL human EGF recombinant protein (Thermo Fisher Scientific, cat. PHG0311). The 485176-168-R4-J1-PDC line was cultured in Panc media, which includes all 6C/Colon 1B media components plus 100 ng/mL human FGF-10 (Thermo Fisher Scientific, cat. 100-26), 500 nM SB-431542 (Selleckchem, cat. S1067), and gastrin (Tocris, cat. 3006).
[…]
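Further: spheroids exposed to compounds for one week before readout.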
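Wherever viability, T/C is given: percent viability relative to DMSO vehicle wells taken as 100%.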

What does the source list for O=C(NO)c1cnc(N2CCN(S(=O)(=O)c3ccc4ccccc4c3)CC2)nc1 + CN(C)c1ccc(Nc2c3ccc(NC(=O)CCN4CCCC4)cc3nc3cc(NC(=O)CCN4CCCC4)ccc23)cc1?
IC50 (curve of first compound, second compound 0.0316 µM): 0.12 µM; IC50 (curve of first compound, second compound 0.1 µM): 0.134 µM; IC50 (curve of first compound, second compound 0.316 µM): 0.0789 µM; IC50 (curve of first compound, second compound 1 µM): < 0.0316 µM; IC50 (curve of first compound, second compound 3.16 µM): < 0.0316 µM; IC50 (curve of first compound, second compound 10 µM): < 0.0316 µM; viability, T/C (second compound 0.0316 µM, first compound 0.0316 µM): 102%; viability, T/C (second compound 0.0316 µM, first compound 0.1 µM): 58.3%; viability, T/C (second compound 0.0316 µM, first compound 0.316 µM): 5.38%; viability, T/C (second compound 0.0316 µM, first compound 1 µM): 0.53%; viability, T/C (second compound 0.0316 µM, first compound 3.16 µM): 0.02%; viability, T/C (second compound 0.0316 µM, first compound 10 µM): 0.56%; viability, T/C (second compound 0.1 µM, first compound 0.0316 µM): 97.1%; viability, T/C (second compound 0.1 µM, first compound 0.1 µM): 64.3%; viability, T/C (second compound 0.1 µM, first compound 0.316 µM): 7.56%; viability, T/C (second compound 0.1 µM, first compound 1 µM): 0.08%; viability, T/C (second compound 0.1 µM, first compound 3.16 µM): 0.71%; viability, T/C (second compound 0.1 µM, first compound 10 µM): 0.06%; viability, T/C (second compound 0.316 µM, first compound 0.0316 µM): 90.5%; viability, T/C (second compound 0.316 µM, first compound 0.1 µM): 39.5%; viability, T/C (second compound 0.316 µM, first compound 0.316 µM): 5.83%; viability, T/C (second compound 0.316 µM, first compound 1 µM): 0.06%; viability, T/C (second compound 0.316 µM, first compound 3.16 µM): 0.09%; viability, T/C (second compound 0.316 µM, first compound 10 µM): 0.1%; viability, T/C (second compound 1 µM, first compound 0.0316 µM): 38.2%; viability, T/C (second compound 1 µM, first compound 0.1 µM): 18.5%; viability, T/C (second compound 1 µM, first compound 0.316 µM): 1.87%; viability, T/C (second compound 1 µM, first compound 1 µM): 0.1%; viability, T/C (second compound 1 µM, first compound 3.16 µM): 0.06%; viability, T/C (second compound 1 µM, first compound 10 µM): 0.08%; viability, T/C (second compound 3.16 µM, first compound 0.0316 µM): 10.9%; viability, T/C (second compound 3.16 µM, first compound 0.1 µM): 1.33%; viability, T/C (second compound 3.16 µM, first compound 0.316 µM): 0.19%; viability, T/C (second compound 3.16 µM, first compound 1 µM): 0.07%; viability, T/C (second compound 3.16 µM, first compound 3.16 µM): 0.12%; viability, T/C (second compound 3.16 µM, first compound 10 µM): 0.09%; viability, T/C (second compound 10 µM, first compound 0.0316 µM): 1.1%; viability, T/C (second compound 10 µM, first compound 0.1 µM): 0.76%; viability, T/C (second compound 10 µM, first compound 0.316 µM): 0.24%; viability, T/C (second compound 10 µM, first compound 1 µM): 0.36%; viability, T/C (second compound 10 µM, first compound 3.16 µM): 0.28%; viability, T/C (second compound 10 µM, first compound 10 µM): 0.21%

Which viability, T/C (compound 0.0316 µM) does the source give for C=CC(=O)N1CCN(c2nc(=O)n(-c3c(C)ccnc3C(C)C)c3nc(-c4c(O)cccc4F)c(F)cc23)C(C)C1 (stereo not given) here?
Its viability, T/C is 108% (2×) and 110%.

What about the viability, T/C (compound 0.1 µM) of the same compound?
Its viability, T/C is 105% and 102% and 99.9%.

And the viability, T/C (compound 0.316 µM)?
Its viability, T/C is 118% and 108% and 110%.

And the viability, T/C (compound 1 µM)?
The viability, T/C was 101% (2×) and 102%.

And the viability, T/C (compound 3.16 µM)?
The viability, T/C was 99.1% and 101% and 97.7%.

And the viability, T/C (compound 10 µM)?
Its viability, T/C is 69.1% and 68% and 75.9%.

And the IC50 (curve of compound)?
The IC50 was greater than 10 µM.

What does the source list for O=c1[nH]cc(F)c(=O)[nH]1?
viability, T/C (compound 0.0316 µM): 102% and 111% and 94.4%; viability, T/C (compound 0.1 µM): 112% and 101% and 100%; viability, T/C (compound 0.316 µM): 95.9% and 101% and 111%; viability, T/C (compound 1 µM): 59.7% and 96.8% and 66.8%; viability, T/C (compound 3.16 µM): 35% and 34% and 49.6%; viability, T/C (compound 10 µM): 36.3% and 23.9% and 38.4%; IC50 (curve of compound): 1.6 µM and 2.36 µM and 2.34 µM

Which viability, T/C (compound 0.1 µM) does the source give for CN(C)c1ccc(Nc2c3ccc(NC(=O)CCN4CCCC4)cc3nc3cc(NC(=O)CCN4CCCC4)ccc23)cc1 here?
The viability, T/C was 99.5% [middle of 12 runs].

What about the viability, T/C (compound 10 µM) of the same compound?
The viability, T/C was 11.4% [middle of 11 runs].

Which results are given for C#Cc1c(F)ccc2cc(O)cc(-c3ncc4c(N5CC6CCC(C5)N6)nc(OCC56CCCN5CC(F)C6)nc4c3F)c12 (stereo not given)?
viability, T/C (compound 0.0316 µM): 102% and 110% and 104%; viability, T/C (compound 0.1 µM): 121% and 94.4% and 94.7%; viability, T/C (compound 0.316 µM): 106% and 97.1% and 94.4%; viability, T/C (compound 1 µM): 117% and 102% and 95.2%; viability, T/C (compound 3.16 µM): 124% and 92.5% and 79.8%; viability, T/C (compound 10 µM): 87.1% and 32.5% and 43.6%; IC50 (curve of compound): > 10 µM and 7.16 µM and 8.22 µM
